Experimental data as given in patent US20170348375A1, “DISLODGEMENT AND RELEASE OF HSC FROM THE BONE MARROW STEM CELL NICHE USING ALPHA9 INTEGRIN ANTAGONISTS” (COMMONWEALTH SCIENTIFIC AND INDUSTRIAL RESEARCH ORGANISATION, priority 2014, published 2017).

Columns and labels:
[1] = system: WBC, LSK and LSKSLAM in PB; experiment: Mobilization of HSC and progenitors into peripheral blood; type: in vivo, mouse; conditions: R-BC154, s.c., 15 and 30 mins post-injection
Description: For mobilization experiments, all mice received subcutaneous injections at 100 μl/10 gm body weight and PB was harvested by throat bleed using EDTA coated syringes.

[2] = system: control LN18 cells (LN18 SiA4); experiment: Saturation binding to control LN18 cells (no integrins); set-up: species or system human; conditions: 1 mM Ca2+/Mg2+
Description: Stable LN18 cells ((ATCC number: CRL-2610) over-expressing integrin α4β1 (LN18 α4β1) or α9β1 (LN18 α9β1)) were generated by retroviral transduction using the pMSCV-hITGA4-IRES-hITGB1 and pMSCV-hITGA9-IRES-hITGB1 vectors as previously described in J Grassinger, et al Blood, 2009, 114, 49-59 and were maintained in DMEM supplemented with 2 mM […] in 10% FBS. Transduced cells were selected by two rounds of FACS using 2.5 μg ml^−1 PE-Cy5-conjugated mouse-anti-human α4 antibody (BD Bioscience) or 20 μg ml^−1 of mouse-anti-human α9β1 antibody (Millipore) in PBS-2% FBS, followed by 0.5 μg ml^−1 of PE-conjugated goat-anti-mouse IgG (BD Bio-science). Silencing of α4 expression in LN18 and LN18 α9β1 cells was performed as described above using pSM2c-shITGA4 (Open Biosystems). α4-silenced LN18 cells (control cell line; LN18 SiA4) and LN18 α9β1 (LN18 α9β1SiA4) were negatively selected for α4 expression using FACS.
The cells were incubated at 37° C. for 60 min, washed once with TBS-2% FBS, dry pelleted and resuspended in the relevant binding buffer for flow cytometric analysis. Mean channel fluorescence was plotted against concentration and fitted to a one-site saturation ligand binding curve using GraphPad Prism 6. The dissociation constant, Kd was determined from the curves.

[3] = molecular target: T1, α4β1 integrin (Homo sapiens, UniProt P05556+P13612); experiment: On-rate and off-rate kinetics of R-BC154 binding to α4β1 LN18 cells; conditions: for kobs / kon / koff: α4β1 cells; for kobs: 50 nM, 37° C., fast phase; for kon: (kobs − koff)/50 nM
T1 construct: expressed in transfected cells; host or cells: human glioblastoma LN18 (ATCC CRL-2610), retrovirally transduced
Description: (§1) Mean channel fluorescence was plotted against time and the data was fitted to either a one-phase or two-phase exponential decay function using GraphPad Prism 6. The off-rate, koff was extrapolated from the curves.
(§2) Eppendorf vials containing α4β1 or α9β1 LN18 cells (0.5×10^6 cells) in 50 μl TBS-2% FBS containing either 1 mM CaCl2—MgCl2 or 1 mM MnCl2 were pre-activated in a heating block for 20 min at 37° C. […] The cells were washed once TBS-2% FBS (with relevant cations), pelleted by centrifugation and resuspended (200 μl) in the relevant binding buffer for flow cytometric analysis. Mean channel fluorescence was plotted against time and the data was fitted to either a one-phase or two phase association function using GraphPad Prism 6. The observed on-rate, kobs was extrapolated from the curves and kon was calculated using […]

[4] = molecular target: T2, α9β1 integrin (Homo sapiens, UniProt P05556+Q13797); experiment: On-rate and off-rate kinetics of R-BC154 binding to α9β1 LN18 cells; conditions: for kobs: 50 nM, 37° C., fast phase; for kon: (kobs − koff)/50 nM
T2 construct: expressed in transfected cells; host or cells: human glioblastoma LN18 (ATCC CRL-2610), retrovirally transduced; α4 silenced with pSM2c-shITGA4
Description: as §1, §2

[5] = system: central and endosteal BM LSK and LSKSLAM cells; experiment: In vitro R-BC154 binding to murine bone marrow cells; type: cell-based, mouse
Description: For lineage analysis, cells were stained separately for T-cells using anti-CD3, B-cells using anti-B220, macrophages using anti-Mac-1 and granulocytes using anti-Gr-1. Alternatively, lineage analysis was also performed using a cocktail containing anti-CD3/B220 (PB conjugated) and anti-B220/Gr1/Mac-1 (AF647 conjugated), whereby B220^+ cells were identified as +/+ cells, CD^3+ cells are +/− and Gr1/Mac-1^+ cells are −/+ populations. For analysis of human WBC from cord blood MNCs or BM and PB from humanised NSG mice, cells were immunolabelled with a lineage cocktail containing anti-huCD3/CD14/CD15 (all AF488 conjugated), anti-CD14/CD15/CD19/CD20 (all AF647 conjugated), anti-huCD45-PB, anti-muCD45-BV510 and anti-huCD34-PECy7. A full list of conjugated antibodies used is detailed in Table 1 and 2.
Populations of endosteal and central murine bone marrow cells were isolated as previously described in J. Grassinger, et al Cytokine, 2012, 58, 218-225 and D. N. Haylock et al Stem Cells, 2007, 25, 1062-1069. Briefly, one femur, tibia and iliac bone were excised and cleaned of muscle. After removing the epi- and metaphyseal regions, bones were flushed with PBS-2% FBS to obtain central bone marrow cells. Flushed long bones and epi- and metaphyseal fragments were pooled and crushed using a mortar and pestle. Bone fragments were digested with Collagenase I (3 mg/ml) and Dispase II (4 mg/ml) at 37° C. in an orbital shaker at 750 rpm. After 5 min, bone fragments were washed once with PBS and once with PBS 2% FBS to collect the endosteal bone marrow cells. Peripheral blood was collected by retro-orbital puncture and red blood cells were lysed using NH4Cl lysis buffer for 5 min at room temperature. Isolated cell populations were washed with PBS 2% FBS and then stained for flow cytometry as described in Antibody Cocktails above.
Cells were washed with cold PBS (2% F BS) and then immunolabelled as described in “Antibody Cocktails” prior to flow cytometric analysis.

T1 sequence (P13612 34-1032): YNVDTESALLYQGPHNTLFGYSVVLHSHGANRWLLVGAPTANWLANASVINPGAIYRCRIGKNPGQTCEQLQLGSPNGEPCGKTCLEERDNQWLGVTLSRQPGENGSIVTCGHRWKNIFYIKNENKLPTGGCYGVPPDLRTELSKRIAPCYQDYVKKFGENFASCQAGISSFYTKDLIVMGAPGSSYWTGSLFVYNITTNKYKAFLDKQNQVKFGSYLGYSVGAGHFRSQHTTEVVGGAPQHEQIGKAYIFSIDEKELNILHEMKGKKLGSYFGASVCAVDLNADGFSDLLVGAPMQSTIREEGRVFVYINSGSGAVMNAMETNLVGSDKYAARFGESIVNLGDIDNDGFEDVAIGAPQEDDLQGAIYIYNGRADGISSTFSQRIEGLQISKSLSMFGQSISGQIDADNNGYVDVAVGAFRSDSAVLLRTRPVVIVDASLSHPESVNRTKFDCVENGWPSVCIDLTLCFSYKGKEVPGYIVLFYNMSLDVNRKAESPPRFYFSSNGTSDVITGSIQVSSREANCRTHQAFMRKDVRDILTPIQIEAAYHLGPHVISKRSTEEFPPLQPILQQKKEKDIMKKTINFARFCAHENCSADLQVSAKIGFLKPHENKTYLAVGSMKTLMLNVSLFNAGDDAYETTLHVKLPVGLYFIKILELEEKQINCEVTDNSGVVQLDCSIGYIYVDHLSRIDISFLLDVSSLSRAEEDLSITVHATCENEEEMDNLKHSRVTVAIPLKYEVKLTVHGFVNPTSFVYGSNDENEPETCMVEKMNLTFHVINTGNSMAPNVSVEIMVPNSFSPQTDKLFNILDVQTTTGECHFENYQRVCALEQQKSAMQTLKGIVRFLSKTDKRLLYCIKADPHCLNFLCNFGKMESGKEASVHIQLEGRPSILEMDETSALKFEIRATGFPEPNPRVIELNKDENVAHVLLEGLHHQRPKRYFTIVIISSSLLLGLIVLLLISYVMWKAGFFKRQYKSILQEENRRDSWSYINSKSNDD
T1 sequence (P05556 21-798): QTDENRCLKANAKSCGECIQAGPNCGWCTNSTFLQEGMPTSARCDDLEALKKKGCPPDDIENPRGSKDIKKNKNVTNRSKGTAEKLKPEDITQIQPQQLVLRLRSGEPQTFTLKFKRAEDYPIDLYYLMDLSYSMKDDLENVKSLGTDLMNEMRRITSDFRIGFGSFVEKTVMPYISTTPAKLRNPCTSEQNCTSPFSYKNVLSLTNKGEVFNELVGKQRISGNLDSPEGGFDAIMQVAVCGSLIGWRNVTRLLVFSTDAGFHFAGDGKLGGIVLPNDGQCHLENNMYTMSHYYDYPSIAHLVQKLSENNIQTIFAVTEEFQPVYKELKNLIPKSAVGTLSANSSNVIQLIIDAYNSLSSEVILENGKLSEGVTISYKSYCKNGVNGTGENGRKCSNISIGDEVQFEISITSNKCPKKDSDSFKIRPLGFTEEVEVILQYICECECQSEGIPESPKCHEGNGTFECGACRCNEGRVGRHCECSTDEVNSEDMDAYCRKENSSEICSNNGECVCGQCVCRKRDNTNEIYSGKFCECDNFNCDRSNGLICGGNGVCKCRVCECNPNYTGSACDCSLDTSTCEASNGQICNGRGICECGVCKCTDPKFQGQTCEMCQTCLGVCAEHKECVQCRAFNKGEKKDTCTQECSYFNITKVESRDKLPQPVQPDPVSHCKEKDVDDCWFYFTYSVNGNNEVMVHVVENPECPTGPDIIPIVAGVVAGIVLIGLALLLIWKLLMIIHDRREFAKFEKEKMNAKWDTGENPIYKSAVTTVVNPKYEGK
T2 sequence (Q13797 30-1035): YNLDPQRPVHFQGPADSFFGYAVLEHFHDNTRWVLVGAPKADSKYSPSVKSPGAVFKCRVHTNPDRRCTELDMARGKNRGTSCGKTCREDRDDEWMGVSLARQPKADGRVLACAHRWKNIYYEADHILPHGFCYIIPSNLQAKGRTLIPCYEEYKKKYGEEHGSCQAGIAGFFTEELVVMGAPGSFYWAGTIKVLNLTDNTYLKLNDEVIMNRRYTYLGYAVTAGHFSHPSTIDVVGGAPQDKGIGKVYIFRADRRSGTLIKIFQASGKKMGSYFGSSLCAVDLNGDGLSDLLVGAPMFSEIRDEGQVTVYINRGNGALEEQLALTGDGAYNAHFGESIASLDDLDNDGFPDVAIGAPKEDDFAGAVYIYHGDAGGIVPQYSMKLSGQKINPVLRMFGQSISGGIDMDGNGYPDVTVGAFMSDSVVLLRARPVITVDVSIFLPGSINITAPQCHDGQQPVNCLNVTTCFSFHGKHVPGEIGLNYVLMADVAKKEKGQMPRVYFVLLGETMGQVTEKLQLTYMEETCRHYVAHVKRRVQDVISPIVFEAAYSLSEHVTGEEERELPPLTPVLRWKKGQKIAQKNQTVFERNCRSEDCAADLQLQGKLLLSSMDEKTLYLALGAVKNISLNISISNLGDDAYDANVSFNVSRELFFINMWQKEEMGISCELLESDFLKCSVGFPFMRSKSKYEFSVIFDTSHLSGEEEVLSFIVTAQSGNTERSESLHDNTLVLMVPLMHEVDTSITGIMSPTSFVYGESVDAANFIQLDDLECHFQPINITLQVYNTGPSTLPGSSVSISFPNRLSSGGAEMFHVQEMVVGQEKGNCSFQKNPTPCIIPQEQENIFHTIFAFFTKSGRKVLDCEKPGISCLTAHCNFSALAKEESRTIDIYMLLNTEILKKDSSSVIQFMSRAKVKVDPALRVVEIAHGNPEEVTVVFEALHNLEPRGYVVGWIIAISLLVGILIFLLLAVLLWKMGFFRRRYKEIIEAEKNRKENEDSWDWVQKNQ
T2 sequence (P05556 21-798): as the sequence (P05556 21-798) above

Structure (SMILES): CCN(CC)c1ccc2c(-c3ccc(S(=O)(=O)NCc4cn(C5CC(C(=O)NC(Cc6ccc(OC(=O)N7CCCC7)cc6)C(=O)O)N(S(=O)(=O)c6ccccc6)C5)nn4)cc3S(=O)(=O)[O-])c3ccc(=[N+](CC)CC)cc-3oc2c1 (stereo not drawn) [R-BC154]
- number of WBC, LSK or LSKSLAM in PB [1]: not found to give significant increases
- binding to control cell line lacking integrin expression [2]: Virtually no binding
- R-BC154 still bound after 60 min ([3]; α4β1, Mn2+, dissociation experiment): greater than 60%
- kobs ([3]; 1 mM Ca2+/Mg2+): 5.426 min⁻¹
- kon ([3]; 1 mM Ca2+/Mg2+): 1.57e+06 M⁻¹ s⁻¹
- koff ([3]; 1 mM Ca2+/Mg2+, fast phase of two-phase dissociation curve): 0.012 s⁻¹
- koff ([3]; 1 mM Mn2+): 0.000233 s⁻¹
- kobs ([3]; 1 mM Mn2+): 1.891 min⁻¹
- kon ([3]; 1 mM Mn2+): 633000 M⁻¹ s⁻¹
- off-rates for α9β1 compared to α4β1 ([4]; Example 2, FIG. 5c): significantly reduced off-rates
- R-BC154 still bound after 60 min ([4]; α9β1, Mn2+, dissociation experiment): greater than 60%
- koff ([4]; α9β1 cells, 1 mM Ca2+/Mg2+): 0.0009 s⁻¹
- kobs ([4]; α9β1 cells, 1 mM Ca2+/Mg2+): 3.117 min⁻¹
- kon ([4]; α9β1 cells, 1 mM Ca2+/Mg2+): 1.02e+06 M⁻¹ s⁻¹
- kobs ([4]; α9β1 cells, 1 mM Mn2+): 2.035 min⁻¹
- kon ([4]; α9β1 cells, 1 mM Mn2+): ~670000 M⁻¹ s⁻¹
- binding to central versus endosteal LSK and LSKSLAM ([5]; 1 mM Ca2+/Mg2+): greater binding to central LSK and LSKSLAM
- binding to HSC and progenitors on co-treatment with EDTA ([5]; 10 mM EDTA (deactivating)): completely abolished activity
- binding to α4−/−/α9−/− LSK and LSKSLAM cells ([5]; BM cells of α4flox/flox α9flox/flox vav-cre mice): essentially absent
- binding to lineage committed lymphoid and myeloid progeny relative to LSKSLAM and LSK ([5]; exogenous activation, central and endosteal BM): significantly lower
- binding to LSK cells in the absence of activating cations and EDTA ([5]; no cations, no EDTA): binding to endosteal LSK cells was still evident but not to central LSK
